Assay results taken from patent US10722501B2 (BAYER AKTIENGESELLSCHAFT, priority 2016, dated 2020).

Molecular target: T1, recombinant full-length human prolyl endopeptidase (PREP) (Homo sapiens, UniProt P48147)
T1 construct: To recombinant full-length human prolyl endopeptidase (PREP, R&D-Systems, 4308-SE); purchased R&D-Systems 4308-SE
T1 sequence (P48147 1-710): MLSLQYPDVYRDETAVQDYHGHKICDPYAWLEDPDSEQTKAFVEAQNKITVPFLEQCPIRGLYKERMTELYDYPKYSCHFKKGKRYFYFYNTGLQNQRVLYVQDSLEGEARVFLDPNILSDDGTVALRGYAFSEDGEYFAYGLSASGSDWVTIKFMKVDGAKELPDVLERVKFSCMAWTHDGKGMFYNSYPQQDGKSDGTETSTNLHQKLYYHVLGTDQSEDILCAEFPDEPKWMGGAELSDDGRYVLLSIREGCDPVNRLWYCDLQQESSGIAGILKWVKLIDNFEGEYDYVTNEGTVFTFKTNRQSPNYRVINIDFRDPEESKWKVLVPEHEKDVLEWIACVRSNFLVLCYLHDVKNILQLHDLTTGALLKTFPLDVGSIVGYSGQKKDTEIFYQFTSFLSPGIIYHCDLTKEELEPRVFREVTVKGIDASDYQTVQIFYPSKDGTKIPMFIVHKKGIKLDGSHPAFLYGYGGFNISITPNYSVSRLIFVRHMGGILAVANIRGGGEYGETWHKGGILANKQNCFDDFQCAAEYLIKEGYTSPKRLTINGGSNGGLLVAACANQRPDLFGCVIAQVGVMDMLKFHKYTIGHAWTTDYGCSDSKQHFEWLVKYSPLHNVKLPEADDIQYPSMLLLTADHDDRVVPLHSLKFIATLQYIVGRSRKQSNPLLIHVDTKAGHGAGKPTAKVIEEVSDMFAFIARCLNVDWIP
Assay: Biochemical human prolyl endopeptidase (PREP) assay with fluorescently labelled substrate
Conditions: substrate Z-Gly-Pro-AMC 50 μM, 32° C., 60 min; some as mean values from multiple independent determinations
Summary of the method: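 0.4 nM (final, example) recombinant PREP in pH 7.5 Tris buffer with EDTA, GSH, BSA and Brij-35; compounds at 1 nM to 30 μM. Reaction started with 50 μM Z-Gly-Pro-AMC and followed by fluorescence (ex 360/em 465 nm) at 32° C for 60 min. IC50 interpolated from percent activity based on initial slopes.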
`Cc1nc(C)c(Cn2nc3n(c2=O)C(C(=O)N2CCCC2)CCC3)nc1C` (racemic) [Example 103, (5RS)-5-(Pyrrolidin-1-ylcarbonyl)-2-[(3,5,6-trimethylpyrazin-2-yl)methyl]-5,6,7,8-tetrahydro[1,2,4]triazolo[4,3-a]pyridin-3(2H)-one] showed an IC50 of 0.16 nM.
`O=C([C@@H]1CCc2nn(Cc3cccc(C(F)(F)F)c3)c(=O)n21)N1CCCC1` [Example 55, (5S)-5-(Pyrrolidin-1-ylcarbonyl)-2-[3-(trifluoromethyl)benzyl]-2,5,6,7-tetrahydro-3H-pyrrolo[2,1-c][1,2,4]triazol-3-one] gave an IC50 of 1.4 nM.
With `O=C([C@@H]1CCCc2nn(CC3(c4ccc(F)cc4)CC3)c(=O)n21)N1CC[C@H](F)C1` [Example 352, (5S)-2-{[1-(4-Fluorophenyl)cyclopropyl]methyl}-5-{[(3S)-3-fluoropyrrolidin-1-yl]carbonyl}-5,6,7,8-tetrahydro[1,2,4]triazolo[4,3-a]pyridin-3(2H)-one] the IC50 was 0.32 nM.
Molecule `O=C([C@@H]1CCCc2nn(Cc3cc(F)c(F)cc3F)c(=O)n21)N1C[C@@H](F)[C@@H](F)C1` [Example 492, (5S)-5-{[(3R,4S)-3,4-Difluoropyrrolidin-1-yl]carbonyl}-2-(2,4,5-trifluorobenzyl)-5,6,7,8-tetrahydro[1,2,4]triazolo[4,3-a]pyridin-3(2H)-one] has an IC50 of 0.52 nM.
`O=C([C@@H]1CCCc2nn(Cc3cccc(Cl)n3)c(=O)n21)N1C[C@@H](F)[C@@H](F)C1` [Example 385, (5S)-2-[(6-Chloropyridin-2-yl)methyl]-5-{[(3R,4S)-3,4-difluoropyrrolidin-1-yl]carbonyl}-5,6,7,8-tetrahydro[1,2,4]triazolo[4,3-a]pyridin-3(2H)-one] showed an IC50 of 1.8 nM.
`O=C([C@@H]1CCCc2nn(Cc3ncc(F)cc3F)c(=O)n21)N1CC(F)C1` [Example 410, (5S)-2-[(3,5-Difluoropyridin-2-yl)methyl]-5-[(3-fluoroazetidin-1-yl)carbonyl]-5,6,7,8-tetrahydro[1,2,4]triazolo[4,3-a]pyridin-3(2H)-one] gave an IC50 of 7.7 nM.
With `O=C(C1C(C(F)(F)F)CCc2nn(Cc3ncc(Cl)cc3F)c(=O)n21)N1CC[C@H](F)C1` (single isomer, unassigned) [Example 295] the IC50 was 12 nM.
Work on `O=C([C@@H]1CCCc2nn(CC3CCC(C(F)(F)F)CC3)c(=O)n21)N1CCCC1` (single isomer, unassigned) [Example 186] yielded an IC50 of 1.25 nM.
For `O=C(C1C(C(F)(F)F)CCc2nn(Cc3ccc(Cl)cn3)c(=O)n21)N1CC[C@H](F)C1` (single isomer, unassigned) [Example 299], the IC50 was 3.5 nM.
Molecule `O=C(C1CC(C(F)(F)F)Cc2nn(Cc3ccnc(C(F)(F)F)c3F)c(=O)n21)N1CCC(F)(F)C1` (single isomer, unassigned) [Example 252, (5RS,7RS)-5-[(3,3-Difluoropyrrolidin-1-yl)carbonyl]-2-{[3-fluoro-2-(trifluoromethyl)pyridin-4-yl]methyl}-7-(trifluoromethyl)-5,6,7,8-tetrahydro[1,2,4]triazolo[4,3-a]pyridin-3(2H)-one] has an IC50 of 3.1 nM.
`O=C(C1CCc2nn(Cc3ccnc(C(F)(F)F)c3F)c(=O)n21)N1C[C@@H](F)[C@@H](F)C1` (single isomer, unassigned) [Example 176] showed an IC50 of 445 nM.
Molecule `O=C([C@@H]1CCC(F)(F)c2nn(Cc3ccc(Cl)cn3)c(=O)n21)N1CC(F)C1` [Example 587, (5S)-2-[(5-Chloropyridin-2-yl)methyl]-8,8-difluoro-5-[(3-fluoroazetidin-1-yl)carbonyl]-5,6,7,8-tetrahydro[1,2,4]triazolo[4,3-a]pyridin-3(2H)-one] has an IC50 of 6.4 nM.

Tested on: PGP
Assay: not given
Conditions: COPD patients treated; cited from earlier work
For `O=C(Nc1c(Cl)cncc1Cl)c1ccc(OC(F)F)c(OCC2CC2)c1` [roflumilast], the “concentration of PGP in the sputum and serum” value is given as “decrease”.
